# Results reported in ChEMBL document CHEMBL2169844, “6β-N-heterocyclic substituted naltrexamine derivative NAP as a potential lead to develop peripheral mu opioid receptor selective antagonists” (Bioorg Med Chem Lett, 2012).
# The source made the active and inactive calls. The rule behind the calls is not given here.
# Experiments:
# Mus musculus [1] = species on record: Mus musculus; experiment: Ratio of naltrexone to compound for toxicity in mouse assessed as reduced wet dog shakes; format: organism-based; conditions: in vivo
# Mus musculus [2] = experiment: Increase in gastrointestinal motility in morphine-naive mouse assessed as decrease in stool weight at 3 mg/kg, sc administered 20 mins before forced charcoal meal measured after 30 mins; format: functional, organism-based; design: dose 3 mg/kg
# Mus musculus [3] = experiment: Increase in gastrointestinal motility in morphine-pelleted mouse assessed as decrease in stool weight at 0.3 to 3 mg/kg, sc administered 20 mins before forced charcoal meal measured after 30 mins; format: functional, organism-based
# Mus musculus [4] = experiment: Increase in gastrointestinal motility in morphine-pelleted mouse at 0.003 to 0.03 mg/kg, sc administered 20 mins before forced charcoal meal measured after 30 mins; format: functional, organism-based
# Mus musculus [5] = experiment: Increase in gastrointestinal motility in morphine-naive mouse assessed as decrease in stool weight at 30 mg/kg, sc administered 20 mins before forced charcoal meal measured after 30 mins; format: functional, organism-based; design: dose 30 mg/kg
# Mus musculus [6] = experiment: Increase in gastrointestinal motility in morphine-pelleted mouse assessed as increase in stool weight at 0.3 to 1 mg/kg, sc administered 20 mins before forced charcoal meal measured after 30 mins; format: functional, organism-based
# Mus musculus [7] = experiment: Increase in gastrointestinal motility in morphine-pelleted mouse assessed as decrease in stool weight at 0.3 to 1 mg/kg, sc administered 20 mins before forced charcoal meal measured after 30 mins; format: functional, organism-based
# Mus musculus [8] = experiment: Increase in gastrointestinal motility in morphine-naive mouse assessed as decrease in stool weight at 0.3 mg/kg, sc administered 20 mins before forced charcoal meal measured after 30 mins; format: functional, organism-based; design: dose 0.3 mg/kg
# Mus musculus [9] = experiment: Toxicity in morphine-pelleted mouse assessed as diarrhea at 0.3 mg/kg, sc; format: organism-based; design: dose 0.3 mg/kg, route subcutaneous; conditions: in vivo
# Mus musculus [10] = species on record: Mus musculus; experiment: Ratio of naloxone to compound for toxicity in mouse assessed as reduced wet dog shakes; format: organism-based; conditions: in vivo
# Mus musculus [11] = experiment: Increase in gastrointestinal motility in sc dosed morphine-pelleted mouse administered 20 mins before forced charcoal meal measured after 30 mins; format: functional
# Mus musculus [12] = experiment: Increase in gastrointestinal motility in morphine-pelleted mouse at 0.3 mg/kg, sc administered 20 mins before forced charcoal meal measured after 30 mins; format: functional, organism-based; design: dose 0.3 mg/kg
# Mus musculus [13] = experiment: Ratio of ED50 for MNTX to compound ED50 for morphine-pelleted mouse administered 20 mins before forced charcoal meal measured after 30 mins; format: functional
# Mus musculus [14] = experiment: Increase in gastrointestinal motility in morphine-pelleted mouse at 3 mg/kg, sc administered 20 mins before forced charcoal meal measured after 30 mins; format: functional, organism-based; design: dose 3 mg/kg
# Mus musculus [15] = experiment: Toxicity in mouse assessed as high locomotory activity measured as jumping up to 50 mg/kg, iv followed by morphine at 32 mg/kg, sc; format: organism-based; conditions: in vivo
# Mus musculus [16] = experiment: Increase in gastrointestinal motility in morphine-pelleted mouse at 1 mg/kg, sc administered 20 mins before forced charcoal meal measured after 30 mins; format: functional, organism-based; design: dose 1 mg/kg
# Mus musculus [17] = experiment: Toxicity in mouse assessed as wet dog shakes at 50 mg/kg, iv followed by morphine at 32 mg/kg, sc; format: organism-based; conditions: in vivo
# [18] = target: Mu-type opioid receptor (Rattus norvegicus) (UniProt P33535); experiment: Partial agonist activity at mu opioid receptor in rat thalamus assessed as stimulation of [35S]-GTP[gammaS]-binding relative to DAMGO; format: functional, tissue-based
# Sequence of Mu-type opioid receptor (Rattus norvegicus) (P33535 whole entry): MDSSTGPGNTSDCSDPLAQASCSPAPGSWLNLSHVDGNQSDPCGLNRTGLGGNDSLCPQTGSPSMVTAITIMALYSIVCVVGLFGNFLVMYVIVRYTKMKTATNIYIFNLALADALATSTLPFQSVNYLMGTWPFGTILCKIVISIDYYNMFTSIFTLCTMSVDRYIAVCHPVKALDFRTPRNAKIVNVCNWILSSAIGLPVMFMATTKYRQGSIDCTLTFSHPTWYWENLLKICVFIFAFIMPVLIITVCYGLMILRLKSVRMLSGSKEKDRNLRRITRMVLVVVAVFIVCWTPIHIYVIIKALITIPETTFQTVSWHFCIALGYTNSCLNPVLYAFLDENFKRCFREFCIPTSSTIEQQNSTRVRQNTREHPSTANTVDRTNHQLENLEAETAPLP
# Mus musculus [19] = experiment: Toxicity in mouse assessed as lower locomotory activity measured as walking at 32 mg/kg, iv followed by morphine at 32 mg/kg, sc; format: organism-based; conditions: in vivo
# Mus musculus [20] = species on record: Mus musculus; experiment: Ratio of ED50 for increase in gastrointestinal motility in morphine-pelleted mouse to ED50 for toxicity in mouse assessed as lower locomotory activity; format: functional
SMILES,Ratio (Mus musculus [1]),Activity (Mus musculus [2]),Activity (Mus musculus [3]),Activity (Mus musculus [4]),Activity (Mus musculus [5]),Activity (Mus musculus [6]),Activity (Mus musculus [7]),Activity (Mus musculus [8]),Activity (Mus musculus [9]),Ratio (Mus musculus [10]),ED50 (Mus musculus [11]) [mg/kg],Activity (Mus musculus [12]),Ratio ED50 (Mus musculus [13]),Activity (Mus musculus [14]),Activity (Mus musculus [15]),Activity (Mus musculus [16]),Activity (Mus musculus [17]),Emax [18] [%],Activity (Mus musculus [19]),Ratio ED50 (Mus musculus [20])
O=C(N[C@@H]1CC[C@@]2(O)[C@H]3Cc4ccc(O)c5c4[C@@]2(CCN3CC2CC2)[C@H]1O5)c1ccncc1,50,Active,inactive,inactive,inactive,inactive,Active,inactive,Toxic,50,0.0088,Active,300,Active,Toxic,Active,Toxic,16.7,Toxic,>3600
C[N+]1(CC2CC2)CC[C@]23c4c5ccc(O)c4O[C@H]2C(=O)CC[C@@]3(O)[C@H]1C5 (stereo partly specified) [METHYLNALTREXONE],–,–,–,–,–,–,–,–,–,–,2.5,–,–,–,–,–,–,–,–,–
